Data on 3 molecules can be found in US10781200B2, “Therapeutic inhibitory compounds” (Attune Pharmaceuticals, Inc., priority 2016, dated 2020).

The data set in a line: Pharmacokinetic study, oral exposure in rats. The format is in vivo. As to conditions: male Sprague-Dawley rats, single oral dose 10 mg/kg, plasma. As for the experimental part:
Pharmacokinetic studies of select compounds were performed to assess the pharmacokinetic properties. Male Sprague-Dawley rats were administered a single oral dose of the test compound at 10 mg/kg (dose concentration: 2 mg/mL, dose volume: 5 ml/kg) via oral gavage. Blood samples were collected via jugular vein at pre-dose, post-dose 5 min, 15 min, 30 min, 1 h, 2 h, 4 h, 6 h, 8 h, 10 h and 24 h, and centrifuged (8000 rpm for 6 minutes at 2-8° C.). The resulting plasma fractions were analyzed by LC/MS/MS to determine the concentration of the test compound.

In the case of `Cc1cc(N)nc(C)c1CNC(=O)c1cn(Cc2ccc3ncc(Cl)cc3c2)c2cnc(C#N)cc12` [Example 134, N-((6-amino-2,4-dimethylpyridin-3-yl)methyl)-1-((3-chloroquinolin-6-yl)methyl)-5-cyano-1H-pyrrolo[2,3-c]pyridine-3-carboxamide], the AUC result is on record as “BLQ”. The same measure for `Cc1cc(N)nc(C)c1CNC(=O)c1cn(Cc2ccc3ncc(Cl)cc3c2)c2ccncc12` [Example 35, N-((6-amino-2,4-dimethylpyridin-3-yl)methyl)-1-((3-chloroquinolin-6-yl)methyl)-1H-pyrrolo[3,2-c]pyridine-3-carboxamide]: “BLQ”; for `Cc1cc(N)nc(C)c1CNC(=O)c1c[nH]c(Cc2ccc3ncc(Cl)cc3c2)n1` [Example 5, N-((6-amino-2,4-dimethylpyridin-3-yl)methyl)-2-((3-chloroquinolin-6-yl)methyl)-1H-imidazole-5-carboxamide]: “BLQ”.
